Measurements published in PubChem BioAssay AID1963958 (Molecular Pharmacology Branch, DTP, NCI, 2024).
Where “and” joins values, the source holds several entries; their conditions need not be identical. Identical values can stand only once. Each block holds one molecule with its values, some of them ahead of it.

System: MDA-MB-231 multicell spheroids, viability
Assay: Anticancer human tumor MDA-MB-231 cell line growth inhibition [PI3K];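 further: spheroids exposed to agents for seven days before reading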;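 on viability, T/C: percent of vehicle control luminescence with DMSO treated spheroids as 100%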
Settings: for viability, T/C: stronger effect = lower value
Method in brief: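 Tumor cells were combined with HUVEC and MSCs into spheroids, then dosed with PI3K-inhibitor combinations over half-log ranges capped near clinical Cmax or 10 microM.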

[1] = curve of first compound, second compound 0.0316 µM
[2] = curve of first compound, second compound 0.1 µM
[3] = curve of first compound, second compound 0.316 µM
[4] = curve of first compound, second compound 1 µM
[5] = second compound 0.0316 µM, first compound 0.000316 µM
[6] = second compound 0.0316 µM, first compound 0.001 µM
[7] = second compound 0.0316 µM, first compound 0.00316 µM
[8] = second compound 0.0316 µM, first compound 0.01 µM
[9] = second compound 0.0316 µM, first compound 0.0316 µM
[10] = second compound 0.0316 µM, first compound 0.1 µM
[11] = second compound 0.1 µM, first compound 0.000316 µM
[12] = second compound 0.1 µM, first compound 0.001 µM
[13] = second compound 0.1 µM, first compound 0.00316 µM
[14] = second compound 0.1 µM, first compound 0.01 µM
[15] = second compound 0.1 µM, first compound 0.0316 µM
[16] = second compound 0.1 µM, first compound 0.1 µM
[17] = second compound 0.316 µM, first compound 0.000316 µM
[18] = second compound 0.316 µM, first compound 0.001 µM
[19] = second compound 0.316 µM, first compound 0.00316 µM
[20] = second compound 0.316 µM, first compound 0.01 µM
[21] = second compound 0.316 µM, first compound 0.0316 µM
[22] = second compound 0.316 µM, first compound 0.1 µM
[23] = second compound 1 µM, first compound 0.000316 µM
[24] = second compound 1 µM, first compound 0.001 µM
[25] = second compound 1 µM, first compound 0.00316 µM
[26] = second compound 1 µM, first compound 0.01 µM
[27] = second compound 1 µM, first compound 0.0316 µM
[28] = second compound 1 µM, first compound 0.1 µM

- IC50 (compound alone, run of 05/08/2023): > 1000 nM
SMILES: CC(Nc1ccc2c(c1)OCCn1cc(N3C(=O)OCC3C(F)F)nc1-2)C(N)=O (stereo unspecified)
- viability, T/C (compound 0.00316 µM): 103% [middle of 8 runs]
- viability, T/C (compound 0.01 µM): 96.1% [middle of 8 runs]
- viability, T/C (compound 0.0316 µM): 81.9% [middle of 8 runs]
- viability, T/C (compound 0.1 µM): 72.1% [middle of 8 runs]
- viability, T/C (compound 0.316 µM): 64.8% [middle of 8 runs]
- viability, T/C (compound 1 µM): 64.2% [middle of 8 runs]

- IC50 (curve of first compound, second compound 0.00316 µM): 34.9 nM
- IC50 (curve of first compound, second compound 0.01 µM): 27.5 nM
- IC50 [1]: 12.8 nM
- IC50 [2]: 5.12 nM
- IC50 [3]: 3.46 nM
- IC50 [4]: 2.13 nM
SMILES: CC(C)n1nc(-c2ccc3oc(N)nc3c2)c2c(N)ncnc21 + CC(Nc1ccc2c(c1)OCCn1cc(N3C(=O)OCC3C(F)F)nc1-2)C(N)=O
- viability, T/C (second compound 0.00316 µM, first compound 0.000316 µM): 101%
- viability, T/C (second compound 0.00316 µM, first compound 0.001 µM): 92.6%
- viability, T/C (second compound 0.00316 µM, first compound 0.00316 µM): 94.5%
- viability, T/C (second compound 0.00316 µM, first compound 0.01 µM): 77.4%
- viability, T/C (second compound 0.00316 µM, first compound 0.0316 µM): 51.8%
- viability, T/C (second compound 0.00316 µM, first compound 0.1 µM): 31.5%
- viability, T/C (second compound 0.01 µM, first compound 0.000316 µM): 89.1%
- viability, T/C (second compound 0.01 µM, first compound 0.001 µM): 93.7%
- viability, T/C (second compound 0.01 µM, first compound 0.00316 µM): 89%
- viability, T/C (second compound 0.01 µM, first compound 0.01 µM): 66%
- viability, T/C (second compound 0.01 µM, first compound 0.0316 µM): 50%
- viability, T/C (second compound 0.01 µM, first compound 0.1 µM): 30.5%
- viability, T/C [5]: 81%
- viability, T/C [6]: 74.6%
- viability, T/C [7]: 65.4%
- viability, T/C [8]: 54.2%
- viability, T/C [9]: 37.7%
- viability, T/C [10]: 25.5%
- viability, T/C [11]: 68.6%
- viability, T/C [12]: 63%
- viability, T/C [13]: 55.2%
- viability, T/C [14]: 42.7%
- viability, T/C [15]: 33.2%
- viability, T/C [16]: 21.3%
- viability, T/C [17]: 65.3%
- viability, T/C [18]: 60.2%
- viability, T/C [19]: 49.5%
- viability, T/C [20]: 41.7%
- viability, T/C [21]: 28.5%
- viability, T/C [22]: 19.9%
- viability, T/C [23]: 58.8%
- viability, T/C [24]: 54.7%
- viability, T/C [25]: 48.3%
- viability, T/C [26]: 36.6%
- viability, T/C [27]: 27.9%
- viability, T/C [28]: 17.3%

- IC50 (curve of compound): 3.47 µM [middle of 4 runs]
SMILES: Cn1ncc(Cl)c1-c1cc(C(=O)NC(CN)Cc2cccc(F)c2)sc1Cl (stereo unspecified)
- viability, T/C (compound 0.0316 µM): 111% [middle of 4 runs]
- viability, T/C (compound 0.1 µM): 99.8% [middle of 4 runs]
- viability, T/C (compound 0.316 µM): 95.8% [middle of 4 runs]
- viability, T/C (compound 1 µM): 77.2% [middle of 4 runs]
- viability, T/C (compound 3.16 µM): 52.5% [middle of 4 runs]
- viability, T/C (compound 10 µM): 28.8% [middle of 4 runs]

SMILES: CC(Nc1ncnc2nc[nH]c12)c1cc2cccc(Cl)c2c(=O)n1-c1ccccc1 (stereo unspecified)
- viability, T/C (compound 0.0316 µM): 105% [middle of 8 runs]
- viability, T/C (compound 0.1 µM): 100% [middle of 8 runs]
- viability, T/C (compound 0.316 µM): 95.5% [middle of 8 runs]
- viability, T/C (compound 1 µM): 82.7% [middle of 8 runs]
- viability, T/C (compound 3.16 µM): 63.9% [middle of 8 runs]
- viability, T/C (compound 10 µM): 50.6% [middle of 8 runs]

- IC50 [1]: > 100 nM
- IC50 [2]: > 100 nM
- IC50 [3]: > 100 nM
- IC50 [4]: > 100 nM
- IC50 (curve of first compound, second compound 3.16 µM): > 100 nM
- IC50 (curve of first compound, second compound 10 µM): > 100 nM
SMILES: Cn1ncnc1[C@H]1c2n[nH]c(=O)c3cc(F)cc(c23)N[C@@H]1c1ccc(F)cc1 + Cc1nc(NC(=O)N2CCCC2C(N)=O)sc1-c1ccnc(C(C)(C)C(F)(F)F)c1
- viability, T/C [5]: 89.3%
- viability, T/C [6]: 88.9%
- viability, T/C [7]: 86.8%
- viability, T/C [8]: 83.4%
- viability, T/C [9]: 79%
- viability, T/C [10]: 72.6%
- viability, T/C [11]: 88.4%
- viability, T/C [12]: 82%
- viability, T/C [13]: 77.5%
- viability, T/C [14]: 68.7%
- viability, T/C [15]: 65%
- viability, T/C [16]: 63.2%
- viability, T/C [17]: 67.2%
- viability, T/C [18]: 75.2%
- viability, T/C [19]: 65.6%
- viability, T/C [20]: 64.1%
- viability, T/C [21]: 59.7%
- viability, T/C [22]: 53.5%
- viability, T/C [23]: 68.3%
- viability, T/C [24]: 66%
- viability, T/C [25]: 65.1%
- viability, T/C [26]: 60%
- viability, T/C [27]: 55.2%
- viability, T/C [28]: 49.7%
- viability, T/C (second compound 3.16 µM, first compound 0.000316 µM): 64.5%
- viability, T/C (second compound 3.16 µM, first compound 0.001 µM): 63.4%
- viability, T/C (second compound 3.16 µM, first compound 0.00316 µM): 64.5%
- viability, T/C (second compound 3.16 µM, first compound 0.01 µM): 54%
- viability, T/C (second compound 3.16 µM, first compound 0.0316 µM): 54.6%
- viability, T/C (second compound 3.16 µM, first compound 0.1 µM): 50.4%
- viability, T/C (second compound 10 µM, first compound 0.000316 µM): 66%
- viability, T/C (second compound 10 µM, first compound 0.001 µM): 63.4%
- viability, T/C (second compound 10 µM, first compound 0.00316 µM): 56%
- viability, T/C (second compound 10 µM, first compound 0.01 µM): 59.8%
- viability, T/C (second compound 10 µM, first compound 0.0316 µM): 54.4%
- viability, T/C (second compound 10 µM, first compound 0.1 µM): 48.8%

- IC50 (curve of compound): 98 nM and 91.6 nM and > 100 nM
SMILES: CC(=O)c1c(C)c2cnc(Nc3ccc(N4CCNCC4)cn3)nc2n(C2CCCC2)c1=O
- viability, T/C (compound 0.000316 µM): 105% [middle of 4 runs]
- viability, T/C (compound 0.001 µM): 104% and 100% and 103% (2×)
- viability, T/C (compound 0.00316 µM): 101% [middle of 4 runs]
- viability, T/C (compound 0.01 µM): 90% [middle of 4 runs]
- viability, T/C (compound 0.0316 µM): 79.7% [middle of 4 runs]
- viability, T/C (compound 0.1 µM): 49.9% [middle of 4 runs]
